Data: ChEMBL document CHEMBL1201862, “PubChem BioAssay data set” (2004)
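Assay format: 96-well plates, 48-hour exposure. At the GI50, growth is halved.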 Active and inactive are the calls of the source. Rule as the data show it: active = GI50 up to about 1.1 µM and inactive = higher.

Columns and labels:
Assay in all cases: NCI tumour cell line growth inhibition, 48 h
MDA-MB-231 = tested on: MDA-MB-231
LOX IMVI = tested on: LOX IMVI
SW-620 = tested on: SW-620
A549 = tested on: A549
T47D = tested on: T47D
HT-29 = tested on: HT-29
DU-145 = tested on: DU-145
786-0 = tested on: 786-0
NCI-H226 = tested on: NCI-H226
CAKI-1 = tested on: CAKI-1
NCI-H23 = tested on: NCI-H23
K562 = tested on: K562
SK-MEL-28 = tested on: SK-MEL-28
HOP-92 = tested on: HOP-92
NCI/ADR-RES = tested on: NCI/ADR-RES
UACC-62 = tested on: UACC-62
SR = tested on: SR
U-251 = tested on: U-251
TK-10 = tested on: TK-10
Malme-3M = tested on: Malme-3M
SF-539 = tested on: SF-539
NCI-H522 = tested on: NCI-H522
SF-295 = tested on: SF-295
IGROV-1 = tested on: IGROV-1
SF-268 = tested on: SF-268
OVCAR-4 = tested on: OVCAR-4
EKVX = tested on: EKVX
RPMI-8226 = tested on: RPMI-8226
MCF7 = tested on: MCF7
MDA-MB-435 = tested on: MDA-MB-435
BT-549 = tested on: BT-549
PC-3 = tested on: PC-3
MOLT-4 = tested on: MOLT-4
M14 = tested on: M14
SK-MEL-5 = tested on: SK-MEL-5
SK-OV-3 = tested on: SK-OV-3
HCT-15 = tested on: HCT-15
HCT-116 = tested on: HCT-116
UACC-257 = tested on: UACC-257
OVCAR-5 = tested on: OVCAR-5
COLO 205 = tested on: COLO 205
SNB-19 = tested on: SNB-19
Hs-578T = tested on: Hs-578T
NCI-H460 = tested on: NCI-H460
OVCAR-3 = tested on: OVCAR-3
SN12C = tested on: SN12C
SNB-75 = tested on: SNB-75
SK-MEL-2 = tested on: SK-MEL-2
UO-31 = tested on: UO-31
HOP-62 = tested on: HOP-62
ACHN = tested on: ACHN
CCRF-CEM = tested on: CCRF-CEM
OVCAR-8 = tested on: OVCAR-8
KM12 = tested on: KM12
HCC 2998 = tested on: HCC 2998
RXF 393 = tested on: RXF 393
A498 = tested on: A498

CSC(SC)(C(=O)O)c1cc(-c2c(Cl)cccc2Cl)no1
GI50 (MDA-MB-231): 31.4 µM (inactive)
GI50 (LOX IMVI): 35.6 µM (inactive)
GI50 (SW-620): > 100 µM (inactive)
GI50 (A549): 55.1 µM (inactive)
GI50 (T47D): 28.4 µM (inactive)
GI50 (HT-29): 32.9 µM (inactive)
GI50 (DU-145): > 100 µM (inactive)
GI50 (786-0): 39.5 µM (inactive)
GI50 (NCI-H226): 25.1 µM (inactive)
GI50 (CAKI-1): 48.4 µM (inactive)
GI50 (NCI-H23): 19.2 µM (inactive)
GI50 (K562): 50.8 µM (inactive)
GI50 (SK-MEL-28): > 100 µM (inactive)
GI50 (HOP-92): 98.9 µM (inactive)
GI50 (NCI/ADR-RES): 26.5 µM (inactive)
GI50 (UACC-62): 27.9 µM (inactive)
GI50 (SR): 33 µM (inactive)
GI50 (U-251): 28.4 µM (inactive)
GI50 (TK-10): > 100 µM (inactive)
GI50 (Malme-3M): 60.8 µM (inactive)
GI50 (SF-539): > 100 µM (inactive)
GI50 (NCI-H522): 28.5 µM (inactive)
GI50 (SF-295): 91.2 µM (inactive)
GI50 (IGROV-1): 30.4 µM (inactive)
GI50 (SF-268): 51.9 µM (inactive)
GI50 (OVCAR-4): 37.9 µM (inactive)
GI50 (EKVX): 54.6 µM (inactive)
GI50 (RPMI-8226): 16.3 µM (inactive)
GI50 (MCF7): 70.1 µM (inactive)
GI50 (MDA-MB-435): 63.4 µM (inactive)
GI50 (BT-549): 28.8 µM (inactive)
GI50 (PC-3): 34 µM (inactive)
GI50 (MOLT-4): 24.5 µM (inactive)
GI50 (M14): 30.2 µM (inactive)
GI50 (SK-MEL-5): 33.7 µM (inactive)
GI50 (SK-OV-3): > 100 µM (inactive)
GI50 (HCT-15): 15.5 µM
GI50 (HCT-116): 26.9 µM (inactive)
GI50 (UACC-257): 42.9 µM (inactive)
GI50 (OVCAR-5): 60.1 µM (inactive)
GI50 (COLO 205): 34.4 µM (inactive)
GI50 (SNB-19): > 100 µM (inactive)
GI50 (Hs-578T): 39.2 µM (inactive)
GI50 (NCI-H460): 34.9 µM (inactive)
GI50 (OVCAR-3): 55.6 µM (inactive)
GI50 (SN12C): 62.1 µM (inactive)
GI50 (SNB-75): 33 µM (inactive)
GI50 (SK-MEL-2): 26.3 µM (inactive)
GI50 (UO-31): 25.1 µM (inactive)
GI50 (HOP-62): 87.5 µM (inactive)
GI50 (ACHN): 46.9 µM (inactive)
GI50 (CCRF-CEM): 26.4 µM (inactive)
GI50 (OVCAR-8): > 100 µM (inactive)

CC(C)(C)c1ccc(O)c(C(O)c2cccnc2)c1 (configuration not stated)
GI50 (MDA-MB-231): > 100 µM (inactive)
GI50 (SW-620): > 100 µM (inactive)
GI50 (KM12): > 100 µM (inactive)
GI50 (A549): > 100 µM (inactive)
GI50 (T47D): 5.87 µM (inactive)
GI50 (HT-29): > 100 µM (inactive)
GI50 (DU-145): > 100 µM (inactive)
GI50 (786-0): > 100 µM (inactive)
GI50 (NCI-H226): > 100 µM (inactive)
GI50 (CAKI-1): > 100 µM (inactive)
GI50 (NCI-H23): > 100 µM (inactive)
GI50 (K562): 81.5 µM (inactive)
GI50 (SK-MEL-28): > 100 µM (inactive)
GI50 (NCI/ADR-RES): 94.6 µM (inactive)
GI50 (UACC-62): 16.6 µM (inactive)
GI50 (HCC 2998): 76 µM (inactive)
GI50 (Malme-3M): > 100 µM (inactive)
GI50 (SF-539): > 100 µM (inactive)
GI50 (NCI-H522): > 100 µM (inactive)
GI50 (IGROV-1): > 100 µM (inactive)
GI50 (SF-268): > 100 µM (inactive)
GI50 (EKVX): > 100 µM (inactive)
GI50 (BT-549): > 100 µM (inactive)
GI50 (MOLT-4): > 100 µM (inactive)
GI50 (SK-MEL-5): 35 µM (inactive)
GI50 (HCT-15): 72.1 µM
GI50 (HCT-116): > 100 µM (inactive)
GI50 (OVCAR-5): > 100 µM (inactive)
GI50 (COLO 205): > 100 µM (inactive)
GI50 (Hs-578T): > 100 µM (inactive)
GI50 (NCI-H460): > 100 µM (inactive)
GI50 (OVCAR-3): > 100 µM (inactive)
GI50 (SNB-75): 57 µM (inactive)
GI50 (UO-31): > 100 µM (inactive)
GI50 (HOP-62): > 100 µM (inactive)
GI50 (ACHN): > 100 µM (inactive)
GI50 (CCRF-CEM): 96.6 µM (inactive)
GI50 (OVCAR-8): > 100 µM (inactive)
GI50 (RXF 393): > 100 µM (inactive)

ClCCN(CCCl)c1ccc(/C=N/Nc2ccnc3ccccc23)cc1
GI50 (A498): 20.3 µM (inactive)
GI50 (MDA-MB-231): 1.89 µM (inactive)
GI50 (LOX IMVI): 1.44 µM (inactive)
GI50 (SW-620): 1.87 µM (inactive)
GI50 (KM12): 1.58 µM (inactive)
GI50 (A549): 1.63 µM (inactive)
GI50 (T47D): 1.76 µM (inactive)
GI50 (HT-29): 0.736 µM (active)
GI50 (DU-145): 1.8 µM (inactive)
GI50 (786-0): 1.78 µM (inactive)
GI50 (NCI-H226): 1.89 µM (inactive)
GI50 (CAKI-1): 2.18 µM (inactive)
GI50 (NCI-H23): 2.01 µM (inactive)
GI50 (K562): 1.39 µM (inactive)
GI50 (SK-MEL-28): 1.63 µM (inactive)
GI50 (HOP-92): 1.64 µM (inactive)
GI50 (NCI/ADR-RES): 1.9 µM (inactive)
GI50 (UACC-62): 1.75 µM (inactive)
GI50 (HCC 2998): 3.26 µM (inactive)
GI50 (U-251): 1.48 µM (inactive)
GI50 (TK-10): 1.52 µM (inactive)
GI50 (Malme-3M): 1.49 µM (inactive)
GI50 (SF-539): 1.41 µM (inactive)
GI50 (NCI-H522): 1.83 µM (inactive)
GI50 (SF-295): 1.31 µM (inactive)
GI50 (IGROV-1): 1.65 µM (inactive)
GI50 (SF-268): 2.65 µM (inactive)
GI50 (OVCAR-4): 1.85 µM (inactive)
GI50 (EKVX): 2.39 µM (inactive)
GI50 (RPMI-8226): 1.32 µM (inactive)
GI50 (MCF7): 3.03 µM (inactive)
GI50 (MDA-MB-435): 1.53 µM (inactive)
GI50 (BT-549): 2 µM (inactive)
GI50 (PC-3): 1.45 µM (inactive)
GI50 (MOLT-4): 1.13 µM (inactive)
GI50 (M14): 2.02 µM (inactive)
GI50 (SK-MEL-5): 1.66 µM (inactive)
GI50 (SK-OV-3): 1.58 µM (inactive)
GI50 (HCT-15): 1.35 µM
GI50 (HCT-116): 1.21 µM (inactive)
GI50 (UACC-257): 1.84 µM (inactive)
GI50 (OVCAR-5): 1.5 µM (inactive)
GI50 (COLO 205): 1.86 µM (inactive)
GI50 (SNB-19): 2.33 µM (inactive)
GI50 (Hs-578T): 2.23 µM (inactive)
GI50 (NCI-H460): 2.73 µM (inactive)
GI50 (OVCAR-3): 1.88 µM (inactive)
GI50 (SN12C): 1.65 µM (inactive)
GI50 (SNB-75): 2.17 µM (inactive)
GI50 (SK-MEL-2): 2 µM (inactive)
GI50 (UO-31): 1.86 µM (inactive)
GI50 (HOP-62): 2.07 µM (inactive)
GI50 (ACHN): 1.84 µM (inactive)
GI50 (CCRF-CEM): 1.49 µM (inactive)
GI50 (OVCAR-8): 1.41 µM (inactive)
